# From patent publication US10118895B2, “ROR gamma (RORγ) modulators” (LEAD PHARMA HOLDING B.V., priority 2015, dated 2018)
# Molecular target: T1, RORγ (Homo sapiens, UniProt P51449)
# T1 construct: expressed in transfected cells; host or cells: 293FT cells (Invitrogen), expression vector pFN26A (Promega)
# T1 sequence (P51449 269-508 limits assumed): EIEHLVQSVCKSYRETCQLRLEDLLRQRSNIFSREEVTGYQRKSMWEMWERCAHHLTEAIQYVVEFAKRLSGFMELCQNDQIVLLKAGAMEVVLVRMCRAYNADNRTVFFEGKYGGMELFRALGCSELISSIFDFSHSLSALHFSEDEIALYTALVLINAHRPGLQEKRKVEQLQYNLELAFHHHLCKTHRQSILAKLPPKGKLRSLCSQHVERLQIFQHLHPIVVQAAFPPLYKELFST
# Experiment: RORγ GAL4 reporter gene assay (luciferase readout, 293FT cells)
# Type: cell-based
# Conditions: inhibition of RORγ (GAL4-RORγ-LBD) in transfected 293FT cells, luciferase signal, overnight incubation; read-out: mean pIC50 (converted)
# Description: RORγ GAL4 Reporter Gene Assay
# Example inhibitors 1-38 were tested for their ability to inhibit RORγ activity in a RORγ GAL4 reporter gene assay. The assay procedure and results are described below.
# RORγ GAL4 Reporter Gene Assay Description
# A GAL4 one-hybrid reporter system employing luciferase readout was established to determine inhibition of RORγ in 293FT cells. The RORγ ligand-binding domain (LBD) was fused to the yeast GAL4 DNA binding domain (DBD) and placed under the control of the human cytomegalovirus (CMV) immediate early promoter, using expression vector pFN26A (Promega) and standard recombinant DNA cloning methods. To serve as a control in the assay, a similar vector was generated in which the GAL4-DBD was fused to Herpes simplex virus protein 16 (VP16), a constitutive transcriptional activator.
# To monitor the inhibitory effect of compounds on RORγ, a transcriptional reporter construct was used. The pGL4.35 vector (Promega) contains nine copies of the GAL4 Upstream Activator Sequence (UAS). This sequence drives the transcription of the luciferase reporter gene luc2P in response to binding of a fusion protein containing the GAL4 DNA binding domain, as for example expressed by the GAL4-RORγ-LBD and GAL4-VP16 expression vectors described above. To allow a GAL4 fusion protein to drive the expression of the luciferase reporter, the pGL4.35 expression vector and the appropriate GAL4 fusion protein expression vector were bulk transfected in the 293FT cells using standard transfection techniques.
# The day after transfection, cells were plated into 96 well plates, test compound was added and the plates were incubated overnight. Subsequently, the firefly luciferase activity was quantified using luciferase detection reagent and luminescence readout.
# Detailed Assay Description
# 293FT cells (Invitrogen) were transfected with a GAL4 fusion protein expression vector (as described above) and the transcriptional reporter construct (pGL4.35, Promega). 60 μL of TransIT-293 transfection reagent (Mirus Bio) was added drop wise to 1500 μl Opti-MEM I Reduced Serum Medium (Invitrogen) and incubated at RT (RT) for 5 to 20 minutes. 1500 μL of this reagent mixture was added to 5 μg of GAL4 fusion protein expression vector and 5 μg of the transcriptional reporter construct, and incubated at RT for 20 minutes.
# To harvest 293FT cells from a T75 flask, first the culture medium was taken off the cells. Subsequently, the cells were washed with Phosphate Buffered Saline (PBS) (Lonza), after which the PBS was removed. To dissociate the cells, 1 ml of TrypLE Express (Invitrogen) was added to the flask, followed by incubation at RT until the cells visually started to detach. Cells were collected in 5 mL of assay medium (DMEM culture medium (Lonza), 10% dialyzed FBS (Invitrogen) and Pen/Strep (Lonza)) to achieve a single cell suspension. 10×10^6 cells were spun down and re-suspended in 10 mL of assay medium. Subsequently, the cell suspension was added to the transfection mix tube, and then transferred as a whole to a T75 flask (Greiner), followed by overnight (16-24 hours) incubation at 37° C. and 5% CO2.
# For compound screening, the cells were harvested (as described above) and counted. 13×10^6 cells were spun down, the supernatant was aspirated and the cells were re-suspended in 17.3 mL of assay medium obtaining a cell suspension of 0.75×10^6 cells/mL. 80 μL of cell suspension (60,000 cells) was plated per well into a white, flat bottom, tissue culture treated, 96 well screening plates (Greiner).
# Test compounds were diluted, starting from a 10 mM dimethylsulfoxide (DMSO) stock solution, to serial dilutions in DMSO at 500× the final test concentration. Subsequently, these solutions were diluted to 5× the final test concentration in two 10-fold-dilution steps in assay medium. The final DMSO concentration of the 5× test compound solution was 1%. […]
row,SMILES,IC50 [nM]
1,"COc1cc(NC(=O)Cc2ccc(S(=O)(=O)CC3CC3)nc2)ccc1C(O)(C(F)(F)F)C(F)(F)F [Example 6, 2-[6-(cyclopropylmethylsulfonyl)-3-pyridyl]-N-[3-methoxy-4-[2,2,2-trifluoro-1-hydroxy-1-(trifluoromethyl)ethyl]phenyl]acetamide]",≤ 1000
2,"CC(C)OC(c1ccc(NC(=O)Cc2ccc(S(=O)(=O)CC3CC3)cn2)cc1)(C(F)(F)F)C(F)(F)F [Example 30, 2-[5-(cyclopropylmethylsulfonyl)-2-pyridyl]-N-[4-[2,2,2-trifluoro-1-isopropoxy-1-(trifluoromethyl)ethyl]phenyl]acetamide]",≤ 100
3,"CCC(O)(c1ccc(NC(=O)Cc2ccc(S(=O)(=O)CC3CC3)nc2)cc1)C(F)(F)F (racemic) [Example 20, 2-[6-(cyclopropylmethylsulfonyl)-3-pyridyl]-N-[4-[1-hydroxy-1-(trifluoromethyl)propyl]phenyl]acetamide]",≤ 1000
4,"O=C(Cc1cnc(S(=O)(=O)CC2CC2)nc1)Nc1ccc(C(O)(C(F)(F)F)C(F)(F)F)cc1 [Example 38, 2-[2-(cyclopropylmethylsulfonyl)pyrimidin-5-yl]-N-[4-[2,2,2-trifluoro-1-hydroxy-1-(trifluoromethyl)ethyl]phenyl]acetamide]",≤ 1000
5,"O=C(Cc1ncc(S(=O)(=O)CC2CC2)cn1)Nc1ccc(C(O)(C(F)(F)F)C(F)(F)F)cc1 [Example 35, 2-[5-(cyclopropylmethylsulfonyl)pyrimidin-2-yl]-N-[4-[2,2,2-trifluoro-1-hydroxy-1-(trifluoromethyl)ethyl]phenyl]acetamide]",≤ 1000
6,"Cc1nc(S(=O)(=O)CC2CC2)ccc1CC(=O)Nc1ccc(C(O)(C(F)(F)F)C(F)(F)F)cc1 [Example 24, 2-[6-(cyclopropylmethylsulfonyl)-2-methyl-3-pyridyl]-N-[4-[2,2,2-trifluoro-1-hydroxy-1-(trifluoromethyl)ethyl]phenyl]acetamide]",≤ 1000
7,"O=C(Cc1ccc(S(=O)(=O)CC2CC2)nc1)Nc1ccc(C(O)(C(F)(F)F)C(F)(F)F)cc1F [Example 8, 2-[6-(cyclopropylmethylsulfonyl)-3-pyridyl]-N-[2-fluoro-4-[2,2,2-trifluoro-1-hydroxy-1-(trifluoromethyl)ethyl]phenyl]acetamide]",≤ 100
8,"COCCOC(c1ccc(NC(=O)Cc2ccc(S(=O)(=O)CC3CC3)nc2)cc1)(C(F)(F)F)C(F)(F)F [Example 27, 2-[6-(cyclopropylmethylsulfonyl)-3-pyridyl]-N-[4-[2,2,2-trifluoro-1-(2-methoxyethoxy)-1-(trifluoromethyl)ethyl]phenyl]acetamide]",≤ 100
9,"O=C(Cc1ccc(S(=O)(=O)CC2CC2)nc1)Nc1ccc(C(O)(C(F)(F)F)C(F)(F)F)c(Cl)c1 [Example 5, N-[3-chloro-4-[2,2,2-trifluoro-1-hydroxy-1-(trifluoromethyl)ethyl]phenyl]-2-[6-(cyclopropylmethylsulfonyl)-3-pyridyl]acetamide]",≤ 100
10,"O=C(Cc1ccc(S(=O)(=O)CC2CC2)nc1)Nc1ccc(C(O)(C(F)(F)F)C(F)(F)F)cc1 [Example 1, 2-[6-(cyclopropylmethylsulfonyl)-3-pyridyl]-N-[4-[2,2,2-trifluoro-1-hydroxy-1-(trifluoromethyl)ethyl]phenyl]acetamide]",≤ 100
